# In patent US10874635B2, “Tocotrienol compositions” (First Tech International Limited, priority 2011, dated 2020):
# Assay: Viscosity measurement of vitamin E, MCT and binary blends
# Assay type: physicochemical
# Settings: 23 °C
# Description: Viscosity of vitamin E, MCT, and their binary mixtures was measured using an advanced rheometer from TA Instruments Ltd, New Castle, Del. model number AR 2000. A cone and plate geometry was used with a steel plate radius of 40 mm and a cone angle of 2°. The gap between the cone and plate geometry was set at 100 μm. Rheological measurements were made at 23° C. The rheometer was fitted with a Peltier temperature control system, which was monitored during the experiments. For each test, approximately 1 g of vitamin E, MCT, or their binary mixtures was placed between the plates. Preliminary studies were conducted to optimize instrument parameters. Once the system was optimized, a continuous ramp method was used. The shear stress was measured at varying shear rates from 1 to 100 s−1 for a period of 5 minutes. All rheological measurements were carried out in triplicates. Data were analyzed using rheology software namely TA Rheology Advantage software, Version 2.3.
# The viscosity of the blends decreased from a high of 3700 mPa·s for vitamin E alone to a low of 27 mPa·s, which is the viscosity of pure MCT. […] Therefore, two levels of vitamin E loading in the emulsion were evaluated in this study representing a high viscosity system at a 70/30 ratio and a low viscosity system at a 30/70 ratio of vitamin E to MCT. […]
substance,measurement,value
(±)-α-Tocopherol [vitamin E],viscosity,3700 mPa·s
